We go through 26 compounds from ChEMBL document CHEMBL2029348, “Synthesis, biological evaluation, and molecular docking studies of N,1,3-triphenyl-1H-pyrazole-4-carboxamide derivatives as anticancer agents” (Bioorg Med Chem Lett, 2012).

The target of experiment [1] is T1, Aurora kinase A (Homo sapiens, UniProt O14965).
T1 sequence (O14965 whole entry): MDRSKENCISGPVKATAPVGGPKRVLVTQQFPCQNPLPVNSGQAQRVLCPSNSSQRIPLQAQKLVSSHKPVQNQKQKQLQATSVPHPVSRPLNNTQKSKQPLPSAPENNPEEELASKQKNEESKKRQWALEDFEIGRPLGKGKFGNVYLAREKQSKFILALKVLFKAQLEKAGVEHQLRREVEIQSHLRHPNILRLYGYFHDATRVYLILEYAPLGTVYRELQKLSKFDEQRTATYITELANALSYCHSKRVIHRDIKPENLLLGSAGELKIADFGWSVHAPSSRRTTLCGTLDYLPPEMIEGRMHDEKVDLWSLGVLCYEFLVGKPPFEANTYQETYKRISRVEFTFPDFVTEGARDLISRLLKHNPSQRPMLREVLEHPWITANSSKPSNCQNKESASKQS
Put plainly: Inhibition of human recombinant Aurora A kinase using biotinylated peptide substrate preincubated for 15 mins with compound measured after 30 mins by fluorescence analysis.

Experiment [2] concerns MCF7. Put plainly: Cytotoxicity against human MCF7 cells after 48 hrs by MTT assay. As to conditions: MCF7, 48 h. It counts as functional, cell-based. For orientation: Tetrazolium assays rely on reduction of a dye to a coloured formazan, in cell work by metabolically active cells.
In experiment [3] the test system is HCT-116. Put plainly: Cytotoxicity against human HCT116 cells after 48 hrs by MTT assay. Format: functional, cell-based. As to conditions: HCT-116, 48 h.
Experiment [4] concerns the target T2, Aurora kinase A (Homo sapiens) (UniProt O14965).
T2 sequence (whole entry): T1 sequence (O14965 whole entry)
As to the kind of experiment: Inhibition of Aurora A kinase in human HCT116 cells at 0.5 to 2 uM by Western blot analysis. Format: cell-based. The settings on record: HCT-116. In general terms: Immunoblotting shows a protein as a band on a membrane.

Activity calls are given as the source filed them. The calls are words filed in the database; no cut-off is given here.

A word on the IC50: it is the concentration that gives 50% inhibition. `O=C(Nc1ccc(Br)cc1)c1cn(-c2ccccc2)nc1-c1ccc([N+](=O)[O-])cc1`: the values for the IC50 in experiment [1], in experiment [2] and in experiment [3] were 5.52 µM, 5.3 µM and 4.08 µM, respectively.
Turning to `Cc1ccc(-c2nn(-c3ccccc3)cc2C(=O)Nc2ccc(Br)cc2)cc1`, the IC50 in experiment [1] worked out at 7.32 µM; in experiment [2], 6.08 µM; in experiment [3], 5.35 µM.
`O=C(Nc1ccc(Br)cc1)c1cn(-c2ccccc2)nc1-c1ccc(Cl)cc1`: the IC50 in experiment [1] worked out at 5.71 µM; in experiment [2], 5.31 µM; in experiment [3] it was 4.36 µM.
The corresponding values for `O=C(Nc1ccc(Cl)cc1)c1cn(-c2ccccc2)nc1-c1ccccc1` are 3.57 µM, 3.86 µM and 3.52 µM.
The corresponding values for `Cc1ccc(-c2nn(-c3ccccc3)cc2C(=O)Nc2ccc(Cl)cc2)cc1` are 4.79 µM, 4.01 µM and 3.88 µM.
The corresponding values for `COc1ccc(NC(=O)c2cn(-c3ccccc3)nc2-c2ccc([N+](=O)[O-])cc2)cc1` are 0.79 µM, 1.21 µM and 1.02 µM.
With `COc1ccc(-c2nn(-c3ccccc3)cc2C(=O)Nc2ccccc2)cc1`, the IC50 came out at 2.78 µM in experiment [1], 2.53 µM in experiment [2] and 2.54 µM in experiment [3].
In the case of `O=C(Nc1ccccc1)c1cn(-c2ccccc2)nc1-c1ccc([N+](=O)[O-])cc1`, the IC50 in experiment [1] turned out to be 2.1 µM; in experiment [2] it was 2.26 µM; in experiment [3] it was 2.01 µM.
In the same order, the values of `CCOc1ccc(NC(=O)c2cn(-c3ccccc3)nc2-c2ccccc2)cc1` are 0.42 µM, 0.88 µM and 0.62 µM.
As for `CCOc1ccc(NC(=O)c2cn(-c3ccccc3)nc2-c2ccc([N+](=O)[O-])cc2)cc1`, the IC50 in experiment [1] came to 0.16 µM; in experiment [2], 0.46 µM; in experiment [3], 0.39 µM. Besides, the inhibition result in experiment [4] was “Active”.
As for `CCOc1ccc(NC(=O)c2cn(-c3ccccc3)nc2-c2ccc(C)cc2)cc1`, the IC50 in experiment [1] was found to be 0.65 µM; in experiment [2] it was 1.03 µM; in experiment [3], 0.78 µM.
In the same order, the values of `COc1ccc(NC(=O)c2cn(-c3ccccc3)nc2-c2ccc(Cl)cc2)cc1` are 0.84 µM, 1.55 µM and 1.33 µM.
Take `Cc1cc(Nc2cc(N3CCN(C)CC3)nc(Sc3ccc(NC(=O)C4CC4)cc3)n2)n[nH]1` [TOZASERTIB]: the midpoint of inhibition in experiment [2], the IC50, lay at 0.38 µM.
`COc1ccc(-c2nn(-c3ccccc3)cc2C(=O)Nc2ccc(Cl)cc2)cc1`: the IC50 in experiment [1] was 5.59 µM; in experiment [2], 4.35 µM; in experiment [3] it was 4.06 µM.
The corresponding values for `O=C(Nc1ccccc1)c1cn(-c2ccccc2)nc1-c1ccc(Cl)cc1` are 2.1 µM, 2.34 µM and 2.18 µM.
In the same order, the values of `COc1ccc(NC(=O)c2cn(-c3ccccc3)nc2-c2ccc(OC)cc2)cc1` are 1.62 µM, 1.77 µM and 1.52 µM.
`O=C(Nc1ccc(Cl)cc1)c1cn(-c2ccccc2)nc1-c1ccc([N+](=O)[O-])cc1`: the IC50 in experiment [1] was found to be 3.04 µM; in experiment [2], 3.24 µM; in experiment [3] it was 2.92 µM.
On to `COc1ccc(NC(=O)c2cn(-c3ccccc3)nc2-c2ccc(C)cc2)cc1`, for which the IC50 in experiment [1] was 1.45 µM; in experiment [2], 1.62 µM; in experiment [3], 1.45 µM.
Consider `O=C(Nc1ccc(Cl)cc1)c1cn(-c2ccccc2)nc1-c1ccc(Cl)cc1`, for which the values for the IC50 in experiment [1], in experiment [2] and in experiment [3] were 3.18 µM, 3.75 µM and 2.99 µM, respectively.
The corresponding values for `O=C(Nc1ccccc1)c1cn(-c2ccccc2)nc1-c1ccccc1` are 2.34 µM, 2.34 µM and 2.31 µM.
As to `O=C(Nc1ccc(Br)cc1)c1cn(-c2ccccc2)nc1-c1ccccc1`, the 50% inhibitory concentration (IC50) in experiment [1] was 7.25 µM; in experiment [2] it was 5.75 µM; in experiment [3], 4.47 µM.
With `COc1ccc(NC(=O)c2cn(-c3ccccc3)nc2-c2ccccc2)cc1`, the figures for the IC50 in experiment [1], in experiment [2] and in experiment [3] were 1.33 µM, 1.71 µM and 1.35 µM, respectively.
For `Cc1ccc(-c2nn(-c3ccccc3)cc2C(=O)Nc2ccccc2)cc1`, the IC50 in experiment [1] amounted to 2.65 µM; in experiment [2] it was 2.45 µM; in experiment [3], 2.36 µM.
The corresponding values for `CCOc1ccc(NC(=O)c2cn(-c3ccccc3)nc2-c2ccc(Cl)cc2)cc1` are 0.22 µM, 0.56 µM and 0.42 µM.
`CCOc1ccc(NC(=O)c2cn(-c3ccccc3)nc2-c2ccc(OC)cc2)cc1`: the IC50 came out at 0.78 µM in experiment [1], 1.1 µM in experiment [2] and 0.97 µM in experiment [3].
In the same order, the values of `COc1ccc(-c2nn(-c3ccccc3)cc2C(=O)Nc2ccc(Br)cc2)cc1` are 12.4 µM, 8.21 µM and 5.87 µM.
